Patent US9309211B2, “Arylalkene derivatives and use thereof as selective estrogen receptor modulators” (Centaurus BioPharma Co., Ltd., priority 2011, dated 2016)

How the values were obtained:
MCF-7 cells = assay: In vitro growth inhibitory potency of anti-estrogen activity in MCF-7 cells; format: cell-based, human; settings: in the presence of E2, 7 days, Cell Titre Glo
Experimental: In Vitro Growth Inhibitory Potency of Anti-Estrogen Activity in MCF-7 Cells:
The estrogen receptor α (ERα) high expression human breast cancer MCF-7 cells (#HTB-22, A.T.C.C.) were cultured in DMEM medium supplemented by 10% fetal bovine serum (Gibco®) and 10 μg/ml bovine insulin (Sigma®). The cells were maintained in 75 cm^2 cell culture flask (Corning®) filled with 15 ml medium, 95% air and 5% CO2. Cells were split twice a week in a single layer cell culture.
For experiments related to 17β-Estradiol (E2), cells at logarithm growing stage were pretreated for two days without E2, the phenol red DMEM medium was replaced by the phenol red free DMEM/F12 medium, and FBS was replaced by 10% charcoal stripped FBS to remove the steroid and greatly decrease the hormone levels. Cells were seeded in 96 well cell culture plates (Corning®) with 4×10^3/well density, cultured in E2 free DMEM/F12 medium at 37° C. for 24 hours, 95% air and 5% CO2. All the compounds were stocked in DMSO as 0.01 M, serial diluted by the culture medium and added to the cells in the presence of proper E2 concentration. The final concentrations of compounds and DMSO were 3×10^−10˜1×10^−5 M and 0.1%. Cells were incubated at 37° C. for 7 days, medium containing E2 and compounds were changed every two days to maintain the chemical activity.
7 Days later, the viable cell numbers were calculated by the ATP amount from the luciferase quantity measurement (Cell Titre Glo® luciferase kit, Promega®). This method can be used to evaluate the stimulating estrogenicity of estrogen dependent cell growth under the condition of E2 free. The estrogenicity was tested by percentage compared to the maximum growth stimulation (100%) by E2. In this study, the percentage antagonist effects were evaluated by compared to the complete inhibition (100%) at the dose of 1×10^−5 M. The inhibition curves were generated by the reading numbers with the program Prism® 5, IC50 values were calculated.

MCF-7 = assay: Anti-tumor (MCF-7) test in nude mice; format: in vivo; settings: QD
Experimental: (§1) As shown in FIGURE and the table below, 21 days after the nude mouse was administered with Tamoxifen (20 mg/kg), the weight dropped by 20%, and a higher dose of 30 mg/kg of an exemplary compound of the present application, shown below as CT-946-01, led to a weight gain of 7%.

[1] = Weight change of nude mice during anti-tumor (MCF-7) test (toxicity); format: in vivo; settings: for BW (% of vehicle): QD, nude mice
Experimental: as §1

Compound | IC50 (MCF-7 cells; Homo sapiens, MCF7, 168 h) [nM] | also measured
CC/C(=C(\c1ccc(O)cc1)c1ccc(OCCNC)nc1)c1ccccc1 | < 100 | –
CC/C(=C(/c1ccc(O)cc1)c1ccc(OCCNC)nc1)c1ccccc1 | < 100 | –
CC/C(=C(\c1ccc(O)cc1)c1ccc(OCCN(C)C)nc1)c1ccccc1 | < 100 | –
CC/C(=C(\c1ccc(O)cc1)c1ccc(OC2CCNC2)nc1)c1ccccc1 (centres unmarked) | < 100 | –
CCC(=C(c1ccc(O)cc1)c1ccc(CCCN2CCCC2)nc1)c1ccccc1 | < 100 | –
CCC(=C(c1ccc(O)cc1)c1ccc(CCCN2CCCC2)cc1)c1ccccc1 | < 100 | –
CCC(=C(c1ccc(O)cc1)c1ccc(CCCNC)nc1)c1ccccc1 | < 100 | –
CCC(=C(c1ccc(O)cc1)c1ccc(CCCNC)cc1)c1ccccc1 | < 100 | –
CCC(=C(c1ccc(O)cc1)c1ccc(C#CCN2CCCC2)c(F)c1)c1ccccc1 | < 100 | –
CC/C(=C(\c1ccc(O)cc1)c1ccc(OCCNC)cc1)C1CCC(=O)CC1 | < 100 | –
CCC(=C(c1ccc(O)cc1)c1ccc(OCCNC)c(Br)c1)c1ccccc1 | < 100 | –
CC/C(=C(/c1ccc(O)cc1)c1ccc(N(C)CCNC)nc1)c1ccccc1 | < 100 | –
CCC(=C(c1ccc(O)cc1)c1ccc(O[C@@H]2CCNC2)cc1)c1ccccc1 | < 100 | –
CCC(=C(c1ccc(O)cc1)c1ccn(CCCN(C)C)c(=O)c1)c1ccccc1 | < 500 | –
CCC(=C(c1ccc(O)cc1)c1ccc(OCCNC)c(F)c1)c1ccccc1 | < 100 | –
CC/C(=C(/c1ccc(O)cc1)c1ccc(OCCNC)cc1)c1ccc(O)c(F)c1 | < 500 | –
CCC(=C(c1ccc(O)cc1)c1ccc(OCCNC)cc1)c1ccc2c(c1)CCO2 | < 100 | –
CCC(=C(c1ccc(O)cc1)c1ccc(OCCNC)cc1)c1ccc2nsnc2c1 | < 100 | –
CC/C(=C(/c1ccc(O)cc1)c1ccc(OCCNC)cc1)c1ccc2[nH]ncc2c1 | < 100 | –
CCC(=C(c1ccc(O)cc1)c1ccc(OCCNC)cc1)c1ccc2occc2c1 | < 100 | –

Compound | IC50 (MCF-7 cells; Homo sapiens, MCF7, 168 h) [nM] | also measured
CC/C(=C(\c1ccc(OC)cc1)c1ccc(OCCNC)cc1)c1ccc2oc(Cl)cc2c1 | < 500 | –
CCC(=C(c1ccc(O)cc1)c1ccc(OCCN2CCCC2)cc1)c1ccc2oc(Cl)cc2c1 | < 100 | –
CCC(=C(c1ccc(O)cc1)c1ccc(OCCN2CCOCC2)cc1)c1ccc2oc(Cl)cc2c1 | < 100 | –
CCC(=C(c1ccc(O)cc1)c1ccc(OCCN(CC)CC)cc1)c1ccc2oc(Cl)cc2c1 | < 100 | –
CCC(=C(c1ccc(O)cc1)c1ccc(OCCN(C)C)cc1)c1ccc2oc(Cl)cc2c1 | < 100 | –
CCC(=C(c1ccc(O)cc1)c1ccc(OCCN2CCNCC2)cc1)c1ccc2oc(Cl)cc2c1 | < 100 | –
CCC(=C(c1ccc(O)cc1)c1ccc(SCCNC)nc1)c1ccc2oc(Cl)cc2c1 | < 100 | –
CCC(=C(c1ccc(O)cc1)c1ccc(CCCN2CCCC2)nc1)c1ccc2oc(Cl)cc2c1 | < 100 | –
CCC(=C(c1ccc(O)cc1)c1ccc(OCCN(C)C)cn1)c1ccccc1 | < 500 | –
CCC(=C(c1ccc(O)cc1)c1ccc(CCCN(C)C)nc1)c1ccccc1 | < 100 | –
CCC(=C(c1ccc(O)cc1)c1ccc(OCC2CCCN2C)cc1)c1ccccc1 (centres unmarked) | < 100 | –
CC/C(=C(\c1ccc(O)cc1)c1ccc(OCCN2CCCC2)nc1)c1ccccc1 | < 100 | –
CC/C(=C(\c1ccc(O)cc1)c1ccc(OCCN2CCN(C)CC2)nc1)c1ccccc1 | < 100 | –
CC/C(=C(\c1ccc(O)cc1)c1ccc(OCCN2CCCCC2)nc1)c1ccccc1 | < 100 | –
CCC(=C(c1ccc(O)cc1)c1ccc(OCCNC)cc1)c1ccsc1 | < 100 | –
CC/C(=C(/c1ccc(O)cc1)c1ccc(OCCNC)cc1)c1csc(Cl)c1 | < 500 | –
CCC(=C(c1ccc(O)cc1)c1ccc(OCCNC)cc1)C1CCC(O)CC1 (centres unmarked) | < 500 | –
CC/C(=C(\c1ccc(O)cc1)c1ccc(SCCNC)nc1)c1ccccc1 | < 100 | –
CCC(=C(c1ccc(O)cc1)c1ccc(OC[C@@H]2CCCN2)cc1)c1ccccc1 | < 100 | –
CCC(=C(c1ccc(O)cc1)c1ccc(OC2CCNC2)cc1)c1ccccc1 (centres unmarked) | < 100 | –

Compound | IC50 (MCF-7 cells; Homo sapiens, MCF7, 168 h) [nM] | also measured
CCC(=C(c1ccc(O)cc1)c1ccc(OCCNC)cc1)c1ccc(O)c(OC)c1 | < 500 | –
CC/C(=C(\c1ccc(O)cc1)c1ccc(OCCNC)cc1)c1ccc(O)c(F)c1 | < 500 | –
CCC(=C(c1ccc(OCCNC)cc1)c1ccc(O)c(F)c1)c1ccccc1 | < 100 | –
CCC(=C(c1ccc(O)cc1)c1ccc(OCCNC)c(F)c1)c1ccc2c(c1)CCO2 | < 100 | –
CC/C(=C(\c1ccc(O)cc1)c1ccc(OCCNC)cc1)c1ccc2[nH]ncc2c1 | < 100 | –
CNCCOc1ccc(C(=C(CCCl)c2ccc3c(c2)CCO3)c2ccc(O)cc2)cc1 | < 100 | –
CC/C(=C(/c1ccc(O)cc1)c1ccc(OCCNC)cc1)c1ccc2oc(Cl)cc2c1 | < 100 | –
CCC(=C(c1ccc(O)cc1)c1ccc(OCCNC)nc1)c1ccc2c(c1)CCO2 | < 100 | –
CCC(=C(c1ccc(O)cc1)c1ccc(OCCN2CCCCC2)cc1)c1ccc2oc(Cl)cc2c1 | < 100 | –
CCC(=C(c1ccc(O)cc1)c1ccc(OCCN2CCN(C)CC2)cc1)c1ccc2oc(Cl)cc2c1 | < 100 | –
CCNCCOc1ccc(C(=C(CC)c2ccc3oc(Cl)cc3c2)c2ccc(O)cc2)cc1 | < 100 | –
CCC(=C(c1ccc(O)cc1)c1ccc(OCCN2CCCCCC2)cc1)c1ccc2oc(Cl)cc2c1 | < 100 | –
CCC(=C(c1ccc(O)cc1)c1ccc(OCCNC)nc1)c1ccc2oc(Cl)cc2c1 | < 100 | –
CCC(=C(c1ccc(O)cc1)c1ccc(N(C)CCNC)nc1)c1ccc2oc(Cl)cc2c1 | < 100 | –
CC/C(=C(\c1ccc(O)cc1)c1ccc(OCCN2CCOCC2)nc1)c1ccccc1 [CT-946-01] | – | TGI (%) 21 days (MCF-7; 10 mg/kg PO): 108%; TGI (%) 21 days (MCF-7; 30 mg/kg PO): 104%; BW (% of vehicle) ([1]; 10 mg/kg PO): 104 % of vehicle; BW (% of vehicle) ([1]; 30 mg/kg PO): 107 % of vehicle; weight gain ([1]; 30 mg/kg, 21 days after administration, nude mouse): 7%
CC/C(=C(\c1ccccc1)c1ccc(OCCN(C)C)cc1)c1ccccc1 [Tamoxifen, reference compound] | – | TGI (%) 21 days (MCF-7; 20 mg/kg PO): 22.4%; BW (% of vehicle) ([1]; 20 mg/kg PO): 80.0 % of vehicle; weight dropped ([1]; 20 mg/kg, 21 days after administration, nude mouse): 20%
CCC(=C(c1ccc(O)cc1)c1ccc(OCCNC)cc1)c1ccc2oc(Cl)cc2c1 [drawing 303] | – | IC50 (MCF-7 cells): < 100 nM
CC/C(=C(\c1ccc(O)cc1)c1ccc(OCCN2CCOCC2)nc1)c1ccccc1 [drawing 318] | < 100 | –
CCC(=C(c1ccc(O)cc1)c1ccc(OCCNC)cc1)c1ccc2oc(Cl)cc2c1 [drawing 331] | < 100 | –
